The text below walks through data of US9957271B2, “Substituted bicyclic aza-heterocycles and analogues as sirtuin modulators” (GlaxoSmithKline, LLC, priority 2012, dated 2018).

Like-named read-outs stand apart in the source and are kept apart here. A value given as a limit tells only on which side of the number the result lay.

The target in the experiment is T1, SIRT1 (Homo sapiens, UniProt Q96EB6).
T1 sequence (Q96EB6 1-747): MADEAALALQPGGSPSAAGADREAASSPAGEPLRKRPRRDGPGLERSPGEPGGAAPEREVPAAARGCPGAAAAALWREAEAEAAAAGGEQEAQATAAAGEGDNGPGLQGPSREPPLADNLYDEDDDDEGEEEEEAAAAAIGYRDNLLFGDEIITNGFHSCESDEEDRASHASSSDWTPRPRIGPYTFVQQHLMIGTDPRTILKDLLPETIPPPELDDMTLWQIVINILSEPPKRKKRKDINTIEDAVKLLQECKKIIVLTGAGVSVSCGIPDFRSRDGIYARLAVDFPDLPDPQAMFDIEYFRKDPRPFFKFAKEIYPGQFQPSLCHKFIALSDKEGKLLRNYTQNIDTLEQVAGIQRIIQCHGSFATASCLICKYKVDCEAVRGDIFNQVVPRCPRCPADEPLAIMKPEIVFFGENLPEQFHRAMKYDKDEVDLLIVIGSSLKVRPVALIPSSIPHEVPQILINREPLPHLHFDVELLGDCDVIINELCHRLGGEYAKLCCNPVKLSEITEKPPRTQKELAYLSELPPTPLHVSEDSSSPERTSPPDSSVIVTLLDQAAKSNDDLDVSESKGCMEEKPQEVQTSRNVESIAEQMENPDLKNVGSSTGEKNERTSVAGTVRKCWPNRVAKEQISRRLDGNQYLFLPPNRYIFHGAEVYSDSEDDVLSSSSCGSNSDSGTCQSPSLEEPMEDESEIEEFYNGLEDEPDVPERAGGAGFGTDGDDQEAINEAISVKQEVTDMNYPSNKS
As to the kind of experiment: TAMRA based mass spectrometry assay of SIRT1 activity. The experiment is classed as biochemical. Particulars: for Emax: read-out: TAMRA % Fold Act. The method in brief: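 Recombinant N-terminal His-tagged human SIRT1 (10 nM, E. coli) incubated 25 min at 25 °C with 0.5 μM 5TMR-labelled p53-derived acetyl-peptide and 120 μM βNAD+ in Tris-acetate pH 8 buffer with DTT and 0.05% BSA, compound at varying concentrations. Stopped with formic acid; deacetylated peptide or OAADPR measured by mass spectrometry relative to DMSO controls.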

[1] abbreviates: TAMRA peptide substrate, concentration giving 150% activation of SIRT1.
Setting [2] is: TAMRA peptide substrate, percent maximum fold activation.
Setting [3] is: TAMRA assay, concentration giving 150% activation of SIRT1.
Setting [4] is: TAMRA assay, percent maximum fold activation.
Where [5] appears, read: concentration of test compound giving 150% activation of SIRT1, TAMRA peptide substrate.
The mark [6] stands for this setting: percent maximum fold activation of SIRT1, TAMRA peptide substrate.

With `O=C(Nc1cccc(N2CCOCC2)n1)c1cnc2ccc(N3CC[C@@H](F)C3)nn12` [Compound 488], the “TAMRA EC1.5” value under setting [1] was “B (EC1.5 1-25 μM)”. The Emax under setting [2] is ≥ 350%.
For `O=C(Nc1cnn2ccc(-c3ccccc3OC(F)(F)F)nc12)c1nc2c(s1)CCCC2` [Compound 780], the “TAMRA EC1.5 (μM)” value under setting [3] is recorded as “A (EC1.5<1 μM)”. In addition, the Emax under setting [4] is ≥ 350%.
For the molecule `O=C(Nc1ncc(F)cc1F)c1cnn2ccc(-c3ccccc3OC(F)(F)F)nc12` [Compound 690], the “TAMRA EC1.5 (μM)” value under setting [3] is “C (EC1.5>25 μM)”. Moreover, under setting [4], the Emax is < 350%.
Turning to `Cc1cc(C)nc(NC(=O)c2c(C)nn3ccc(-c4ccccc4C(F)(F)F)nc23)n1` [Compound 777], under setting [3], the “TAMRA EC1.5 (μM)” value was “A (EC1.5<1 μM)”. Moreover, under setting [4], the Emax was ≥ 350%.
Turning to `O=C(Nc1cnc2ccc(-c3ccccc3C(F)(F)F)nn12)c1cccc(CN2CCOCC2)n1` [Compound 81], the “TAMRA EC1.5 (μM)” value under setting [5] was “A (EC1.5<1 μM)”. Also, under setting [6], the Emax was ≥ 350%.
For the molecule `Cc1cc(C)nc(NC(=O)c2cnc3ccc(-c4ccccc4C(F)(F)F)nn23)n1` [Compound 247], the “TAMRA EC1.5 (μM)” value under setting [3] is recorded as “A (EC1.5<1 μM)”. Also, the Emax under setting [4] was ≥ 350%.
As to `COc1nccc(NC(=O)c2cnn3ccc(-c4ccccc4C(F)(F)F)nc23)n1` [Compound 519], under setting [1], the “TAMRA EC1.5” value was “A (EC1.5<1 μM)”. Further, under setting [2], the Emax is ≥ 350%.
Regarding `Cc1ccc(NC(=O)c2c(C)nc3ccc(-c4ccccc4C(F)(F)F)nn23)nn1` [Compound 664], under setting [3], the “TAMRA EC1.5 (μM)” value is recorded as “A (EC1.5<1 μM)”. Further, under setting [4], the Emax is ≥ 350%.
For the molecule `Cc1ccnc(NC(=O)c2c(C)nc3ccc(-c4ccccc4OC[C@H](O)CO)nn23)c1` [Compound 817], the “TAMRA EC1.5 (μM)” value under setting [3] is listed as “A (EC1.5<1 μM)”. Moreover, the Emax under setting [4] was ≥ 350%.
With `O=C(Nc1cnc2ccc(-c3ccccc3Cl)nn12)c1cnccn1` [Compound 288], the “TAMRA EC1.5 (μM)” value under setting [3] is reported as “B (EC1.5 1-25 μM)”. Moreover, the Emax under setting [4] was < 350%.
On to `O=C(Nc1cncc(OC[C@@H](O)CO)n1)c1cnc2ccc(-c3ccccc3C(F)(F)F)nn12` [Compound 556, (S)-N-(6-(2,3-dihydroxypropoxy)pyrazin-2-yl)-6-(2-(trifluoromethyl)phenyl)imidazo[1,2-b]pyridazine-3-carboxamide], for which the “TAMRA EC1.5” value under setting [1] is on record as “A (EC1.5<1 μM)”. The Emax under setting [2] is ≥ 350%.
In the case of `Cc1cc(-c2ccccc2C(F)(F)F)nn2c(C(=O)Nc3cccc(CN4CCOCC4)n3)cnc12` [Compound 195], under setting [5], the “TAMRA EC1.5 (μM)” value was “A (EC1.5<1 μM)”. Moreover, the Emax under setting [6] was ≥ 350%.
With `Cc1nc2ccc(-c3ccccc3C(F)(F)F)nn2c1C(=O)Nc1ccccn1` [Compound 498], the “TAMRA EC1.5” value under setting [1] was “A (EC1.5<1 μM)”. Also, the Emax under setting [2] was ≥ 350%.
On to `Cc1nc2c(C)cc(-c3ccccc3OC(F)(F)F)nn2c1C(=O)Nc1ccncc1F` [Compound 494], for which the “TAMRA EC1.5” value under setting [1] is reported as “A (EC1.5<1 μM)”. Besides, the Emax under setting [2] was ≥ 350%.
Turning to `Cc1cc2ncc(NC(=O)c3ccccn3)n2nc1-c1ccccc1C(F)(F)F` [Compound 441, N-(7-methyl-6-(2-(trifluoromethyl)phenyl)imidazo[1,2-b]pyridazin-3-yl)picolinamide], under setting [1], the “TAMRA EC1.5” value is reported as “A (EC1.5<1 μM)”. Moreover, the Emax under setting [2] was ≥ 350%.
With `O=C(Nc1cccc(CN2CCOCC2)n1)c1cnc2ccc(-c3ccc(F)c(F)c3F)nn12` [Compound 127], under setting [5], the “TAMRA EC1.5 (μM)” value was “B (EC1.5 1-25 μM)”. Moreover, the Emax under setting [6] is < 350%.
Regarding `Cc1nc2ccc(-c3cccc(OC[C@H](O)CO)c3)nn2c1C(=O)Nc1ccncc1F` [Compound 822], the “TAMRA EC1.5 (μM)” value under setting [3] was “A (EC1.5<1 μM)”. The Emax under setting [4] was < 350%.
Turning to `O=C(Nc1cccnc1)c1cnc2ccc(-c3c(F)cccc3Cl)nn12` [Compound 163], the “TAMRA EC1.5 (μM)” value under setting [5] is recorded as “C (EC1.5>25 μM)”. Under setting [6], the Emax was < 350%.
As for `O=C(Nc1cccc(N2CCC2)n1)c1nnc2ccc(-c3ccccc3C(F)(F)F)nn12` [Compound 73, N-(6-(azetidin-1-yl)pyridin-2-yl)-6-(2-(trifluoromethyl)phenyl)-[1,2,4]-triazolo[4,3-b]pyridazine-3-carboxamide], the “TAMRA EC1.5 (μM)” value under setting [5] was “A (EC1.5<1 μM)”. Also, under setting [6], the Emax was < 350%.
Regarding `Cc1nc2c(N3CCOCC3)cc(-c3ccccc3C(F)(F)F)nn2c1C(=O)Nc1cccnn1` [Compound 738, 2-methyl-8-morpholino-N-(pyridazin-3-yl)-6-(2-(trifluoromethyl)phenyl)imidazo[1,2-b]pyridazine-3-carboxamide], the “TAMRA EC1.5 (μM)” value under setting [3] was “A (EC1.5<1 μM)”. In addition, the Emax under setting [4] is ≥ 350%.
As to `Cc1cc(NC(=O)c2cnc3c(C)cc(-c4ccccc4C(F)(F)F)nn23)cc(C)n1` [Compound 528], the “TAMRA EC1.5” value under setting [1] is on record as “A (EC1.5<1 μM)”. In addition, under setting [2], the Emax was ≥ 350%.
In the case of `Cc1nc(C(=O)Nc2c(C)nc3ccc(-c4ccccc4C(F)(F)F)nn23)cs1` [Compound 405], under setting [1], the “TAMRA EC1.5” value was “B (EC1.5 1-25 μM)”. For the same molecule, the Emax under setting [2] is ≥ 350%.
Consider `O=C(Nc1ccncc1)c1cnc2ccc(-c3ccccc3Cl)nn12` [Compound 94], for which the “TAMRA EC1.5 (μM)” value under setting [5] is on record as “B (EC1.5 1-25 μM)”. Under setting [6], the Emax is < 350%.
For the molecule `Cc1cnc(C(=O)Nc2cnc3ccc(-c4ccccc4F)nn23)s1` [Compound 304], under setting [3], the “TAMRA EC1.5 (μM)” value is “B (EC1.5 1-25 μM)”. Further, the Emax under setting [4] is < 350%.
In the case of `Cc1nc2ccc(-c3ccccc3C(F)(F)F)nn2c1NC(=O)c1cscn1` [Compound 404], the “TAMRA EC1.5” value under setting [1] is reported as “B (EC1.5 1-25 μM)”. For the same molecule, the Emax under setting [2] is < 350%.
Turning to `O=C(Nc1cccc(N2CCC2)n1)c1cnc2ccc(-c3ccccc3C(F)(F)F)nn12` [Compound 49], under setting [5], the “TAMRA EC1.5 (μM)” value is on record as “A (EC1.5<1 μM)”. Further, the Emax under setting [6] is ≥ 350%.
For `Cc1nc2ccc(-c3ccccc3C(F)(F)F)nn2c1NC(=O)c1ncccn1` [Compound 378], the “TAMRA EC1.5 (μM)” value under setting [3] is on record as “B (EC1.5 1-25 μM)”. In addition, the Emax under setting [4] was ≥ 350%.
Consider `Cc1scnc1C(=O)Nc1cnn2ccc(-c3ccccc3OC(F)(F)F)nc12` [Compound 756], for which the “TAMRA EC1.5 (μM)” value under setting [3] was “B (EC1.5 1-25 μM)”. Further, the Emax under setting [4] is ≥ 350%.
As to `Cc1nc2ccc(-c3ccccc3Cl)nn2c1NC(=O)c1cccc(N2CCOCC2)n1` [Compound 355], the “TAMRA EC1.5 (μM)” value under setting [3] is recorded as “A (EC1.5<1 μM)”. For the same molecule, the Emax under setting [4] is ≥ 350%.
In the case of `COc1cccc(NC(=O)c2cnc3ccc(-c4ccccc4C(F)(F)F)nn23)n1` [Compound 103], the “TAMRA EC1.5 (μM)” value under setting [5] was “A (EC1.5<1 μM)”. For the same molecule, under setting [6], the Emax is ≥ 350%.
On to `O=C(Nc1ccnc(N2CCCC2)c1)c1cnc2ccc(-c3ccccc3C(F)F)nn12` [Compound 40], for which the “TAMRA EC1.5 (μM)” value under setting [5] is “A (EC1.5<1 μM)”. Also, under setting [6], the Emax is ≥ 350%.
For the molecule `Cc1cc2ncc(NC(=O)c3ncccn3)n2nc1-c1ccccc1C(F)(F)F` [Compound 444], the “TAMRA EC1.5” value under setting [1] is recorded as “A (EC1.5<1 μM)”. Also, the Emax under setting [2] was ≥ 350%.
Take `Cc1cc(-c2ccccc2C(F)(F)F)nn2c(C(=O)Nc3ccnc(OC4CCOCC4)n3)cnc12` [Compound 587]: under setting [1], the “TAMRA EC1.5” value was “A (EC1.5<1 μM)”. Moreover, the Emax under setting [2] is ≥ 350%.
For `O=C(Nc1cnn2ccc(-c3ccccc3OC(F)(F)F)nc12)c1ccncn1` [Compound 585] the same measures were “B (EC1.5 1-25 μM)” and ≥ 350%.
Consider `O=C(Nc1nccs1)c1cnc2ccc(-c3cccc(OC(F)(F)F)c3)nn12` [Compound 7], for which the “TAMRA EC1.5 (μM)” value under setting [5] was “B (EC1.5 1-25 μM)”. For the same molecule, under setting [6], the Emax is < 350%.
Turning to `O=C(Nc1cnn2ccc(-c3ccccc3C(F)(F)F)nc12)c1cccc(O)n1` [Compound 520], the “TAMRA EC1.5” value under setting [1] is given as “B (EC1.5 1-25 μM)”. Besides, the Emax under setting [2] was < 350%.
On to `Cc1ccc(NC(=O)c2cnn3ccc(-c4ccccc4OC(F)(F)F)nc23)nc1` [Compound 608], for which the “TAMRA EC1.5 (μM)” value under setting [3] was “C (EC1.5>25 μM)”. The Emax under setting [4] was < 350%.
With `O=C(Nc1ccncc1)c1cnc2ccc(-c3cccc(F)c3Cl)nn12` [Compound 181], the “TAMRA EC1.5 (μM)” value under setting [5] was “B (EC1.5 1-25 μM)”. In addition, under setting [6], the Emax was < 350%.
Consider `N#Cc1ccccc1-c1ccc2ncc(C(=O)Nc3cccc(CN4CCOCC4)n3)n2n1` [Compound 202], for which the “TAMRA EC1.5 (μM)” value under setting [3] is listed as “B (EC1.5 1-25 μM)”. Also, the Emax under setting [4] is < 350%.
As to `Cc1cc(NC(=O)c2cnc3ccc(-c4ccccc4OCC(O)CO)nn23)ccn1` (stereo not shown) [Compound 370], the “TAMRA EC1.5 (μM)” value under setting [3] is on record as “B (EC1.5 1-25 μM)”. The Emax under setting [4] is ≥ 350%.
Regarding `Cc1cc(C)nc(NC(=O)c2cnc3ccc(-c4cccc(OCC(O)CO)c4)nn23)c1` (stereo not shown) [Compound 417], the “TAMRA EC1.5” value under setting [1] is listed as “A (EC1.5<1 μM)”. Also, the Emax under setting [2] is ≥ 350%.
